How the values were obtained:
[1] = test system: human adipose-derived mesenchymal stem cells (AD-MSCs/passage 18); assay: β-galactosidase staining, senescent AD-MSCs; assay type: cell-based; conditions: AD-MSCs passage 18, 3 days
From the text: (§1) Human placenta-derived mesenchymal stem cells (pl-mscs) Were Isolated From Placentas Separated according to the previously reported method of Choi et al. (PLOS ONE, (2017) 12 (2): e0172642), umbilical cord blood-derived mesenchymal stem cells (UCB-MSCs) were isolated from the umbilical cord blood separated according to the method of Kim et al. (FEBS Letters, (2010) 584:3601-3608), and adipose tissue-derived mesenchymal stem cells (AD-MSCs) were isolated from adipose tissue separated according to the previously reported method of Palumbo et al. (Int. J. Mol. Sci. (2018) 19:1987).
(§2) Each of the obtained mesenchymal stem cells was subcultured in aMEM (a-modified Minimum Essential Media) containing 10% fetal bovine serum (FBS) and 0.5% gentamicin (10 mg/ml).
(§3) The replicative senescence models of human adipose-derived mesenchymal stem cells (AD-MSCs/passage 18), human bone marrow-derived mesenchymal stem cells (BM-MSCs/passage 15), human umbilical cord blood-derived mesenchymal stem cells (UCB-MSCs/passage 16), and human placenta-derived mesenchymal stem cells (PL-MSCs/passage 18) established as described above were treated with nervonic acid for 3 days, and β-galactosidase staining was performed to observe the extent of senescence.

[2] = test system: MyHC (myosin heavy chain), a marker of muscle regeneration, in muscle tissue; assay: MyHC immunohistochemical staining in muscle tissue of muscle disease mouse model after injection of treated P18 cells; assay type: in vivo; conditions: P18 cells treated with 160 μM for 72 hours, injected via tail vein, mdx mouse, one week after injection
Procedure: (§4) Specifically, the muscle disease mouse model used was C57BL/10ScSn-Dmdmdx/J (mdx mouse) , and C57BL/10J with the same genetic background was used as a control group. All experiments were conducted using mice aged 4 to 5 months. The cells to be injected were human umbilical cord-derived young mesenchymal stem cells (control group) (P5) and replicative senescence model (P18). More specifically, the replicative senescence model (P18) was treated with 160 μM nervonic acid or an equivalent amount of DMSO for 72 hours during culture at P18 and then dissociated as single cells with 0.25% Trypsin/EDTA (Gibco, MT, USA), and 5×10^4 cells per mouse were injected via the tail vein. One week after injection, both tibial muscles of the mouse model were harvested and fixed in 4% paraformaldehyde or frozen.
Example 10. […]
In order to assess the extent of muscle regeneration in the muscle tissue of a muscle disease mouse model after injecting mesenchymal stem cells for each condition, the extent of muscle regeneration in the tissue was determined through immunohistochemical staining for MyHC (myosin heavy chain), a marker of muscle regeneration. […]

[3] = test system: Annexin V, an apoptosis marker, in muscle tissue; assay: Annexin V Western blotting in muscle tissue of muscle disease mouse model after injection of treated P18 cells; assay type: in vivo; conditions: P18 cells treated with 160 μM for 72 hours, 5×10^4 cells per mouse via tail vein, one week after injection
Procedure: A replicative senescence model (P18) was treated with nervonic acid (160 μM) and then injected into a muscle disease mouse model to assess the effect of nervonic acid treatment on the therapeutic efficacy of the replicative senescence model (P18) in terms of reducing apoptosis in muscle tissue.
as §4
In addition, the expression of Annexin V was assessed at the protein level. Specifically, the protein to be used in the experiment was extracted from muscle tissue. […]

[4] = test system: human-derived mesenchymal stem cells, control cells (P5) subcultured to P10; assay: Doubling time by CCK-8 assay at P10 after treatment at each passage; assay type: cell-based; conditions: 160 μM for 24 hours at each passage, at P10, CCK-8
Procedure: (§5) Example 8. Confirmation Of anti-senescence efficacy by treating various human tissue-derived mesenchymal stem cells with nervonic acid Human-derived mesenchymal stem cells were treated with nervonic acid (160 μM) at each passage during cell culture from control cells (P5) to P10 to determine whether continuous treatment with nervonic acid during cell culture at early passage numbers was able to delay cellular senescence.
(§6) Specifically, from the day after human-derived mesenchymal stem cells were subcultured, treatment with 160 μM nervonic acid or an equivalent amount of DMSO (control) for 24 hours was performed, followed by replacement with the existing culture medium the next day. The above process was repeated to perform subculture up to P10 (passage 10). As such, B galactosidase staining for measuring cellular senescence was performed at P7, P8, P9, and P10, and cell doubling time and RNA extraction for qRT-PCR were both performed at P10. A more specific procedure therefor was carried out in the same manner as described above.
Also, the doubling time of the control group (DMSO) and the nervonic acid treatment group was measured using CCK (cell counting kit)-8 assay.

[5] = test system: human placenta-derived mesenchymal stem cells (PL-MSCs/passage 18); assay: β-galactosidase staining, senescent PL-MSCs; assay type: cell-based; conditions: PL-MSCs passage 18, 3 days
From the text: as §1, §2, §3

[6] = test system: senescence markers P16 and P21; assay: qRT-PCR of senescence markers P16 and P21 in replicative senescence model (P18); assay type: cell-based, human; conditions: 160 μM, 3 days
Procedure: In order to verify the anti-senescence efficacy of nervonic acid, the expression levels of senescence-related markers in a control group (P5) and a replicative senescence model (P18) were measured after treatment with nervonic acid (160 μM).
Specifically, qRT-PCR performed in this example is as follows: after treating the replicative senescence model (P18) with nervonic acid for 3 days, total RNA was extracted using Trizol (Invitrogen, MA, USA) according to the method provided by the vendor. After quantifying the extracted total RNA, random hexamer and dNTP were added, and PCR was performed at 65° C. for 5 minutes. 5× SSIV buffer, 100 mM DTT, RNAse OUT, and Superscript IV RT were added and reverse transcription was performed to synthesize cDNA, and then qRT-PCR was performed to measure gene expression, and the expression levels were compared through 2^−ΔΔCt analysis.

[7] = test system: human-derived mesenchymal stem cells, control cells (P5) subcultured to P10; assay: β-galactosidase staining during serial subculture P5 to P10 with treatment at each passage; assay type: cell-based; conditions: 160 μM for 24 hours at each passage
Procedure: as §5, §6

CCCCCCCC/C=C\CCCCCCCCCCCCCC(=O)O [nervonic acid]
progression of senescence (β-galactosidase staining) compared to control group (DMSO) [1]: progression of senescence was significantly inhibited
MyHC expression level (immunohistochemical staining) compared to injection group treated with DMSO [2]: slightly increased
Annexin V protein expression (Western blotting), fold decrease compared to mdx control group [3]: 0.30±0.02 fold
doubling time [4]: 24.7 h
progression of senescence (β-galactosidase staining) compared to control group (DMSO) [5]: progression of senescence was significantly inhibited
P16 mRNA level, fold compared to before treatment [6]: 0.78±0.01 fold
P21 mRNA level, fold compared to before treatment [6]: 0.82±0.02 fold
extent of senescence (β-galactosidase staining), fold compared to DMSO control at P10 [7]: 0.40±0.07 fold

Source: patent US20260226417A1, “METHOD FOR INHIBITING AGING OF STEM CELLS” (ENCELL CO., LTD, priority 2023, published 2026)
